Assay results as given in the NIST ThermoML archive (doi:10.1016/j.fluid.2018.05.033).

How the values were obtained:
[1] = for mass density: 101.33 kPa, Liquid, Vibrating tube method; for Normal melting temperature: Crystal, Phase equilibration
[2] = refractive index (Na D-line) (dimensionless); conditions: 101.33 kPa, Liquid, Standard Abbe refractometry
[3] = xn = mol fraction of the nth substance listed; conditions: 101.3 kPa, Liquid, Vibrating tube method
[4] = refractive index (Na D-line) (dimensionless); xn = mol fraction of the nth substance listed; conditions: 101.3 kPa, Liquid, Standard Abbe refractometry

O=S1OCCO1 [1,3,2-dioxathiolane, 2-oxide]
298.15 K
Conditions | mass density [kg/m3] | refractive index
[1] | 1432.17 | –
[2] | – | 1.4449

Conditions | Normal melting temperature [°C]
[1] | -17.01

O=S1OCCO1 [1,3,2-dioxathiolane, 2-oxide] + CCOC(=O)OC
298.15 K
Conditions | mass density, [3] [kg/m3] | refractive index, [4]
x2 = 0.0498 | 1404.65 | 1.4405
x2 = 0.0994 | 1378 | 1.4361
x2 = 0.1993 | 1326.76 | 1.4279
x2 = 0.2998 | 1278.43 | 1.42
x2 = 0.3996 | 1233.17 | 1.4127
x2 = 0.5008 | 1189.88 | 1.4056
x2 = 0.5995 | 1149.94 | 1.3991
x2 = 0.7001 | 1111.21 | 1.3927
x2 = 0.8002 | 1074.73 | 1.3867
x2 = 0.8995 | 1040.17 | 1.381
x2 = 0.9501 | 1023.08 | 1.3782

O=S1OCCO1 [1,3,2-dioxathiolane, 2-oxide] + COC(=O)OC
298.15 K
Conditions | mass density, [3] [kg/m3] | refractive index, [4]
x2 = 0.0499 | 1412.39 | 1.4407
x2 = 0.0997 | 1392.6 | 1.4365
x2 = 0.2002 | 1353.25 | 1.4283
x2 = 0.2999 | 1314.96 | 1.4202
x2 = 0.4 | 1277.01 | 1.4123
x2 = 0.4997 | 1239.88 | 1.4044
x2 = 0.6004 | 1202.89 | 1.3965
x2 = 0.6998 | 1166.91 | 1.3889
x2 = 0.8009 | 1130.5 | 1.3811
x2 = 0.9002 | 1095.66 | 1.3737
x2 = 0.9505 | 1078.06 | 1.37

O=S1OCCO1 [1,3,2-dioxathiolane, 2-oxide] + O=C1CCCO1
298.15 K
Conditions | mass density, [3] [kg/m3] | refractive index, [4]
x2 = 0.0501 | 1417.36 | 1.4443
x2 = 0.1008 | 1401.19 | 1.4437
x2 = 0.2006 | 1369.54 | 1.4425
x2 = 0.2991 | 1338.59 | 1.4414
x2 = 0.4102 | 1303.97 | 1.4402
x2 = 0.4994 | 1276.38 | 1.4392
x2 = 0.5998 | 1245.54 | 1.4382
x2 = 0.701 | 1214.73 | 1.4373
x2 = 0.7995 | 1184.91 | 1.4365
x2 = 0.9002 | 1154.7 | 1.4356
x2 = 0.9495 | 1139.97 | 1.4353

O=S1OCCO1 [1,3,2-dioxathiolane, 2-oxide] + O=C1OCCO1
318.15 K
Conditions | mass density, [3] [kg/m3] | refractive index, [4]
x2 = 0.0492 | 1403.48 | 1.4358
x2 = 0.0998 | 1399.66 | 1.435
x2 = 0.2011 | 1391.76 | 1.4333
x2 = 0.3 | 1383.61 | 1.4315
x2 = 0.4024 | 1374.81 | 1.4297
x2 = 0.5005 | 1366.04 | 1.4278
x2 = 0.5994 | 1356.86 | 1.4259
x2 = 0.6997 | 1347.14 | 1.4238
x2 = 0.8005 | 1337 | 1.4217
x2 = 0.8996 | 1326.62 | 1.4196
x2 = 0.9494 | 1321.21 | 1.4185

COC(=O)OC [dimethyl carbonate]
298.15 K
Conditions | mass density [kg/m3] | refractive index
[1] | 1060.87 | –
[2] | – | 1.3662

Conditions | Normal melting temperature [°C]
[1] | 4.37

CCOC(=O)OC [ethyl methyl carbonate]
298.15 K
Conditions | mass density [kg/m3] | refractive index
[1] | 1006.88 | –
[2] | – | 1.3754

Conditions | Normal melting temperature [°C]
[1] | -51.47

O=C1OCCO1 [ethylene carbonate]
318.15 K
Conditions | mass density [kg/m3] | refractive index
[1] | 1315.7 | –
[2] | – | 1.4172

Conditions | Normal melting temperature [°C]
[1] | 37.41

O=C1CCCO1 [γ-butyrolactone]
298.15 K
Conditions | mass density [kg/m3] | refractive index
[1] | 1124.97 | –
[2] | – | 1.4349

Conditions | Normal melting temperature [°C]
[1] | -41.87
